{"source": "ChEMBL document CHEMBL1201862", "about": "“PubChem BioAssay data set” (2004)", "test_in_all_cases": "NCI-60 cell line screen, 48 h", "key": {"OVCAR-5": {"system": "OVCAR-5"}, "UO-31": {"system": "UO-31"}, "SW-620": {"system": "SW-620"}, "SF-268": {"system": "SF-268"}, "SNB-19": {"system": "SNB-19"}, "HT-29": {"system": "HT-29"}, "Malme-3M": {"system": "Malme-3M"}, "SR": {"system": "SR"}, "DMS-114": {"system": "DMS-114"}, "NCI-H23": {"system": "NCI-H23"}, "A549": {"system": "A549"}, "HOP-92": {"system": "HOP-92"}, "DMS-273": {"system": "DMS-273"}, "KM-20L2": {"system": "KM-20L2"}, "RPMI-8226": {"system": "RPMI-8226"}, "HCT-15": {"system": "HCT-15"}, "SK-OV-3": {"system": "SK-OV-3"}, "SNB-78": {"system": "SNB-78"}, "K562": {"system": "K562"}, "IGROV-1": {"system": "IGROV-1"}, "HOP-62": {"system": "HOP-62"}, "ACHN": {"system": "ACHN"}, "HCT-116": {"system": "HCT-116"}, "NCI-H460": {"system": "NCI-H460"}, "U-251": {"system": "U-251"}, "TK-10": {"system": "TK-10"}, "XF498": {"system": "XF498"}, "SK-MEL-28": {"system": "SK-MEL-28"}, "SF-539": {"system": "SF-539"}, "SNB-75": {"system": "SNB-75"}, "LOX IMVI": {"system": "LOX IMVI"}, "OVCAR-4": {"system": "OVCAR-4"}, "HL-60": {"system": "HL-60"}, "KM12": {"system": "KM12"}, "NCI-H522": {"system": "NCI-H522"}, "LXFL 529": {"system": "LXFL 529"}, "HCC 2998": {"system": "HCC 2998"}, "COLO 205": {"system": "COLO 205"}, "NCI-H226": {"system": "NCI-H226"}, "RXF 393": {"system": "RXF 393"}, "786-0": {"system": "786-0"}, "M19-MEL": {"system": "M19-MEL"}, "UACC-62": {"system": "UACC-62"}, "M14": {"system": "M14"}, "UACC-257": {"system": "UACC-257"}, "SN12C": {"system": "SN12C"}, "SF-295": {"system": "SF-295"}, "MOLT-4": {"system": "MOLT-4"}, "CAKI-1": {"system": "CAKI-1"}, "OVCAR-3": {"system": "OVCAR-3"}, "DLD-1": {"system": "DLD-1"}, "OVCAR-8": {"system": "OVCAR-8"}, "SK-MEL-5": {"system": "SK-MEL-5"}, "EKVX": {"system": "EKVX"}, "SK-MEL-2": {"system": "SK-MEL-2"}, "A498": {"system": "A498"}, "CCRF-CEM": {"system": "CCRF-CEM"}}, "note": "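Protocol summary: plate cells (96-well), add compound at 5 concentrations, incubate 48 h, interpolate endpoints linearly. GI50: concentration for 50% inhibition of growth.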 Activity calls are given as the source filed them. Cut-off read from the data, not from the text of the source: active = GI50 up to about 1.1 µM and inactive = higher.", "data": [{"compound": "CN(C)CC(/C(Cc1ccccc1)=N\\NC(=S)NN)c1ccccc1", "note": "(stereo not drawn)", "values": [{"measurement": "GI50", "setting": "OVCAR-5", "value": "> 100 µM (inactive)"}, {"measurement": "GI50", "setting": "UO-31", "value": "> 100 µM (inactive)"}, {"measurement": "GI50", "setting": "SW-620", "value": "> 100 µM (inactive)"}, {"measurement": "GI50", "setting": "SF-268", "value": "> 100 µM (inactive)"}, {"measurement": "GI50", "setting": "SNB-19", "value": "> 100 µM (inactive)"}, {"measurement": "GI50", "setting": "HT-29", "value": "> 100 µM (inactive)"}, {"measurement": "GI50", "setting": "Malme-3M", "value": "> 100 µM (inactive)"}, {"measurement": "GI50", "setting": "SR", "value": "> 100 µM (inactive)"}, {"measurement": "GI50", "setting": "DMS-114", "value": "> 100 µM (inactive)"}, {"measurement": "GI50", "setting": "NCI-H23", "value": "> 100 µM (inactive)"}, {"measurement": "GI50", "setting": "A549", "value": "> 100 µM (inactive)"}, {"measurement": "GI50", "setting": "HOP-92", "value": "> 100 µM (inactive)"}, {"measurement": "GI50", "setting": "DMS-273", "value": "> 100 µM (inactive)"}, {"measurement": "GI50", "setting": "KM-20L2", "value": "> 100 µM (inactive)"}, {"measurement": "GI50", "setting": "RPMI-8226", "value": "> 100 µM (inactive)"}, {"measurement": "GI50", "setting": "HCT-15", "value": "> 100", "unit": "µM"}, {"measurement": "GI50", "setting": "SK-OV-3", "value": "> 100 µM (inactive)"}, {"measurement": "GI50", "setting": "SNB-78", "value": "> 100 µM (inactive)"}, {"measurement": "GI50", "setting": "K562", "value": "> 100 µM (inactive)"}, {"measurement": "GI50", "setting": "IGROV-1", "value": "> 100 µM (inactive)"}, {"measurement": "GI50", "setting": "HOP-62", "value": "> 100 µM (inactive)"}, {"measurement": "GI50", "setting": "ACHN", "value": "> 100 µM (inactive)"}, {"measurement": "GI50", "setting": "HCT-116", "value": "> 100 µM (inactive)"}, {"measurement": "GI50", "setting": "NCI-H460", "value": "> 100 µM (inactive)"}, {"measurement": "GI50", "setting": "U-251", "value": "> 100 µM (inactive)"}, {"measurement": "GI50", "setting": "TK-10", "value": "> 100 µM (inactive)"}, {"measurement": "GI50", "setting": "XF498", "value": "> 100 µM (inactive)"}, {"measurement": "GI50", "setting": "SK-MEL-28", "value": "> 100 µM (inactive)"}, {"measurement": "GI50", "setting": "SF-539", "value": "> 100 µM (inactive)"}, {"measurement": "GI50", "setting": "SNB-75", "value": "> 100 µM (inactive)"}, {"measurement": "GI50", "setting": "LOX IMVI", "value": "> 100 µM (inactive)"}, {"measurement": "GI50", "setting": "OVCAR-4", "value": "> 100 µM (inactive)"}, {"measurement": "GI50", "setting": "HL-60", "value": "> 100 µM (inactive)"}, {"measurement": "GI50", "setting": "KM12", "value": "> 100 µM (inactive)"}, {"measurement": "GI50", "setting": "NCI-H522", "value": "> 100 µM (inactive)"}, {"measurement": "GI50", "setting": "LXFL 529", "value": "> 100 µM (inactive)"}, {"measurement": "GI50", "setting": "HCC 2998", "value": "> 100 µM (inactive)"}, {"measurement": "GI50", "setting": "COLO 205", "value": "> 100 µM (inactive)"}, {"measurement": "GI50", "setting": "NCI-H226", "value": "> 100 µM (inactive)"}, {"measurement": "GI50", "setting": "RXF 393", "value": "> 100 µM (inactive)"}, {"measurement": "GI50", "setting": "786-0", "value": "> 100 µM (inactive)"}, {"measurement": "GI50", "setting": "M19-MEL", "value": "> 100 µM (inactive)"}, {"measurement": "GI50", "setting": "UACC-62", "value": "> 100 µM (inactive)"}, {"measurement": "GI50", "setting": "M14", "value": "> 100 µM (inactive)"}, {"measurement": "GI50", "setting": "UACC-257", "value": "> 100 µM (inactive)"}, {"measurement": "GI50", "setting": "SN12C", "value": "> 100 µM (inactive)"}, {"measurement": "GI50", "setting": "SF-295", "value": "> 100 µM (inactive)"}, {"measurement": "GI50", "setting": "MOLT-4", "value": "> 100 µM (inactive)"}, {"measurement": "GI50", "setting": "CAKI-1", "value": "> 100 µM (inactive)"}, {"measurement": "GI50", "setting": "OVCAR-3", "value": "> 100 µM (inactive)"}, {"measurement": "GI50", "setting": "DLD-1", "value": "> 100 µM (inactive)"}, {"measurement": "GI50", "setting": "OVCAR-8", "value": "> 100 µM (inactive)"}]}, {"compound": "COc1ccc(CNc2nc3cc(C(F)(F)F)ccc3nc2C)cc1OC", "values": [{"measurement": "GI50", "setting": "OVCAR-5", "value": "37.5 µM (inactive)"}, {"measurement": "GI50", "setting": "SK-MEL-5", "value": "17.3 µM (inactive)"}, {"measurement": "GI50", "setting": "UO-31", "value": "24 µM (inactive)"}, {"measurement": "GI50", "setting": "SW-620", "value": "37.9 µM (inactive)"}, {"measurement": "GI50", "setting": "SF-268", "value": "33.3 µM (inactive)"}, {"measurement": "GI50", "setting": "SNB-19", "value": "41.6 µM (inactive)"}, {"measurement": "GI50", "setting": "HT-29", "value": "39.9 µM (inactive)"}, {"measurement": "GI50", "setting": "Malme-3M", "value": "20.1 µM (inactive)"}, {"measurement": "GI50", "setting": "NCI-H23", "value": "35.7 µM (inactive)"}, {"measurement": "GI50", "setting": "A549", "value": "32.1 µM (inactive)"}, {"measurement": "GI50", "setting": "DMS-273", "value": "20 µM (inactive)"}, {"measurement": "GI50", "setting": "KM-20L2", "value": "44.1 µM (inactive)"}, {"measurement": "GI50", "setting": "RPMI-8226", "value": "27.1 µM (inactive)"}, {"measurement": "GI50", "setting": "EKVX", "value": "20.2 µM (inactive)"}, {"measurement": "GI50", "setting": "HCT-15", "value": 34.8, "unit": "µM"}, {"measurement": "GI50", "setting": "SK-OV-3", "value": "36.7 µM (inactive)"}, {"measurement": "GI50", "setting": "SK-MEL-2", "value": "19.5 µM (inactive)"}, {"measurement": "GI50", "setting": "SNB-78", "value": "12.2 µM (inactive)"}, {"measurement": "GI50", "setting": "K562", "value": "29.1 µM (inactive)"}, {"measurement": "GI50", "setting": "IGROV-1", "value": "31 µM (inactive)"}, {"measurement": "GI50", "setting": "HOP-62", "value": "20.8 µM (inactive)"}, {"measurement": "GI50", "setting": "HCT-116", "value": "26.2 µM (inactive)"}, {"measurement": "GI50", "setting": "NCI-H460", "value": "30.1 µM (inactive)"}, {"measurement": "GI50", "setting": "U-251", "value": "37 µM (inactive)"}, {"measurement": "GI50", "setting": "A498", "value": "24.3 µM (inactive)"}, {"measurement": "GI50", "setting": "TK-10", "value": "24.3 µM (inactive)"}, {"measurement": "GI50", "setting": "XF498", "value": "35.3 µM (inactive)"}, {"measurement": "GI50", "setting": "SK-MEL-28", "value": "44.1 µM (inactive)"}, {"measurement": "GI50", "setting": "SF-539", "value": "29.2 µM (inactive)"}, {"measurement": "GI50", "setting": "SNB-75", "value": "18.5 µM (inactive)"}, {"measurement": "GI50", "setting": "LOX IMVI", "value": "24.9 µM (inactive)"}, {"measurement": "GI50", "setting": "OVCAR-4", "value": "12 µM (inactive)"}, {"measurement": "GI50", "setting": "HL-60", "value": "19.9 µM (inactive)"}, {"measurement": "GI50", "setting": "KM12", "value": "23.7 µM (inactive)"}, {"measurement": "GI50", "setting": "NCI-H522", "value": "21.9 µM (inactive)"}, {"measurement": "GI50", "setting": "LXFL 529", "value": "35.8 µM (inactive)"}, {"measurement": "GI50", "setting": "HCC 2998", "value": "17.9 µM (inactive)"}, {"measurement": "GI50", "setting": "COLO 205", "value": "32.9 µM (inactive)"}, {"measurement": "GI50", "setting": "CCRF-CEM", "value": "31.9 µM (inactive)"}, {"measurement": "GI50", "setting": "786-0", "value": "22 µM (inactive)"}, {"measurement": "GI50", "setting": "M19-MEL", "value": "32.8 µM (inactive)"}, {"measurement": "GI50", "setting": "UACC-62", "value": "31.6 µM (inactive)"}, {"measurement": "GI50", "setting": "M14", "value": "20.3 µM (inactive)"}, {"measurement": "GI50", "setting": "UACC-257", "value": "19 µM (inactive)"}, {"measurement": "GI50", "setting": "SN12C", "value": "30.5 µM (inactive)"}, {"measurement": "GI50", "setting": "SF-295", "value": "34.4 µM (inactive)"}, {"measurement": "GI50", "setting": "MOLT-4", "value": "17.3 µM (inactive)"}, {"measurement": "GI50", "setting": "CAKI-1", "value": "33 µM (inactive)"}, {"measurement": "GI50", "setting": "OVCAR-3", "value": "32.5 µM (inactive)"}, {"measurement": "GI50", "setting": "DLD-1", "value": "35.7 µM (inactive)"}, {"measurement": "GI50", "setting": "OVCAR-8", "value": "30.3 µM (inactive)"}]}]}
